Measured values as given in PubChem BioAssay (NCI).
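Method: 48-hour compound exposure of cells in 96-well plates, five concentrations, linear interpolation of endpoints. TGI denotes the concentration required for complete inhibition of growth.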

How the values were obtained:
Assay in all cases: NCI tumour cell line growth inhibition, 48 h
[1] = tested on: SK-OV-3 ovarian
[2] = tested on: SK-MEL-5 melanoma
[3] = tested on: DLD-1 colon
[4] = tested on: HT29 colon
[5] = tested on: MOLT-4 leukemia
[6] = tested on: TK-10 renal
[7] = tested on: A549 NSCLC
[8] = tested on: DMS 273 small cell lung
[9] = tested on: OVCAR-3 ovarian
[10] = tested on: SF-268 CNS
[11] = tested on: HCT-116 colon
[12] = tested on: COLO 205 colon
[13] = tested on: OVCAR-8 ovarian
[14] = tested on: SK-MEL-2 melanoma
[15] = tested on: HCT-15 colon
[16] = tested on: NCI-H460 lung
[17] = tested on: MALME-3M melanoma
[18] = tested on: EKVX NSCLC
[19] = tested on: SNB-75 CNS
[20] = tested on: CAKI-1 renal
[21] = tested on: ACHN renal
[22] = tested on: M14 melanoma
[23] = tested on: U251 CNS
[24] = tested on: XF 498 CNS
[25] = tested on: HCC-2998 colon
[26] = tested on: DMS 114 small cell lung
[27] = tested on: RXF 393 renal
[28] = tested on: KM20L2 colon
[29] = tested on: SF-539 CNS
[30] = tested on: SNB-78 CNS
[31] = tested on: NCI-H23 lung
[32] = tested on: SNB-19 CNS
[33] = tested on: OVCAR-4 ovarian
[34] = tested on: UO-31 renal
[35] = tested on: RPMI-8226 leukemia
[36] = tested on: IGROV1 ovarian
[37] = tested on: UACC-257 melanoma
[38] = tested on: M19-MEL melanoma
[39] = tested on: SR leukemia
[40] = tested on: OVCAR-5 ovarian
[41] = tested on: A498 renal
[42] = tested on: 786-0 renal
[43] = tested on: SN12C renal
[44] = tested on: SF-295 CNS
[45] = tested on: SW-620 colon
[46] = tested on: K-562 leukemia
[47] = tested on: SK-MEL-28 melanoma
[48] = tested on: HL-60(TB) leukemia
[49] = tested on: LOX IMVI melanoma
[50] = tested on: UACC-62 melanoma
[51] = tested on: NCI-H226 lung
[52] = tested on: KM12 colon
[53] = tested on: CCRF-CEM leukemia
[54] = tested on: NCI-H522 lung
[55] = tested on: HOP-62 NSCLC
[56] = tested on: HOP-92 NSCLC
[57] = tested on: LXFL 529 NSCLC

Q: How did the TGI [1] turn out when `N#Cc1c2c(c(Cl)n3c1nc1ccccc13)CCCC2` was run?
A: 10.2 µM

Q: And the TGI [2]?
A: 3.26 µM

Q: And the TGI [3]?
A: 24.2 µM

Q: And the TGI [4]?
A: 2.86 µM

Q: And the TGI [5]?
A: 24.8 µM

Q: And the TGI [6]?
A: 6.68 µM

Q: What about the TGI [7] of the same molecule?
A: 17.2 µM

Q: What about the TGI [8] of the same molecule?
A: 3.74 µM

Q: And the TGI [9]?
A: 20.1 µM

Q: And the TGI [10]?
A: 8.83 µM

Q: And the TGI [11]?
A: 5.43 µM

Q: And the TGI [12]?
A: 17.7 µM

Q: And the TGI [13]?
A: 5.89 µM

Q: And the TGI [14]?
A: 8.34 µM

Q: What about the TGI [15] of the same molecule?
A: 10.6 µM

Q: What about the TGI [16] of the same molecule?
A: 4.02 µM

Q: What about the TGI [17] of the same molecule?
A: 27 µM

Q: What about the TGI [18] of the same molecule?
A: 32.1 µM

Q: And the TGI [19]?
A: 30.9 µM

Q: What about the TGI [20] of the same molecule?
A: 11.8 µM

Q: And the TGI [21]?
A: 12.4 µM

Q: What about the TGI [22] of the same molecule?
A: 11.3 µM

Q: What about the TGI [23] of the same molecule?
A: 11.8 µM

Q: And the TGI [24]?
A: 5.29 µM

Q: And the TGI [25]?
A: 30.8 µM

Q: What about the TGI [26] of the same molecule?
A: 5.12 µM

Q: What about the TGI [27] of the same molecule?
A: 0.904 µM

Q: What about the TGI [28] of the same molecule?
A: 7.48 µM

Q: What about the TGI [29] of the same molecule?
A: 14 µM

Q: And the TGI [30]?
A: 15.9 µM

Q: And the TGI [31]?
A: 17 µM

Q: And the TGI [32]?
A: 14.7 µM

Q: What about the TGI [33] of the same molecule?
A: 16.7 µM

Q: And the TGI [34]?
A: 12.8 µM

Q: And the TGI [35]?
A: 7.52 µM

Q: And the TGI [36]?
A: 8.28 µM

Q: And the TGI [37]?
A: 3.91 µM

Q: What about the TGI [38] of the same molecule?
A: 12.2 µM

Q: What about the TGI [39] of the same molecule?
A: > 100 µM

Q: And the TGI [40]?
A: 32.4 µM

Q: And the TGI [41]?
A: 23.8 µM

Q: What about the TGI [42] of the same molecule?
A: 3.33 µM

Q: What about the TGI [43] of the same molecule?
A: 4.74 µM

Q: And the TGI [44]?
A: 16.6 µM

Q: What about the TGI [45] of the same molecule?
A: 4.43 µM

Q: And the TGI [46]?
A: 7.15 µM

Q: What about the TGI [47] of the same molecule?
A: 4.43 µM

Q: What about the TGI [48] of the same molecule?
A: 5.25 µM

Q: And the TGI [49]?
A: 4.57 µM

Q: `C=CCc1cc(OC)c2c(c1)C(OC(C)=O)CC(c1ccc(OC)c(OC)c1)O2` (stereo not given) was tested. Which TGI [1] did it give?
A: > 100 µM

Q: What about the TGI [2] of the same molecule?
A: > 100 µM

Q: What about the TGI [3] of the same molecule?
A: > 100 µM

Q: What about the TGI [4] of the same molecule?
A: > 100 µM

Q: What about the TGI [5] of the same molecule?
A: > 100 µM

Q: What about the TGI [6] of the same molecule?
A: > 100 µM

Q: What about the TGI [7] of the same molecule?
A: > 100 µM

Q: What about the TGI [50] of the same molecule?
A: > 100 µM

Q: And the TGI [51]?
A: > 100 µM

Q: And the TGI [8]?
A: > 100 µM

Q: What about the TGI [9] of the same molecule?
A: > 100 µM

Q: And the TGI [10]?
A: > 100 µM

Q: What about the TGI [11] of the same molecule?
A: > 100 µM

Q: And the TGI [12]?
A: > 100 µM

Q: And the TGI [15]?
A: > 100 µM

Q: What about the TGI [16] of the same molecule?
A: > 100 µM

Q: What about the TGI [17] of the same molecule?
A: > 100 µM

Q: And the TGI [18]?
A: > 100 µM

Q: What about the TGI [19] of the same molecule?
A: 58.6 µM

Q: What about the TGI [20] of the same molecule?
A: > 100 µM

Q: What about the TGI [21] of the same molecule?
A: > 100 µM

Q: What about the TGI [52] of the same molecule?
A: > 100 µM

Q: And the TGI [22]?
A: > 100 µM

Q: What about the TGI [23] of the same molecule?
A: > 100 µM

Q: What about the TGI [53] of the same molecule?
A: > 100 µM

Q: What about the TGI [25] of the same molecule?
A: > 100 µM

Q: And the TGI [54]?
A: > 100 µM

Q: What about the TGI [26] of the same molecule?
A: > 100 µM

Q: And the TGI [28]?
A: > 100 µM

Q: What about the TGI [29] of the same molecule?
A: > 100 µM

Q: What about the TGI [30] of the same molecule?
A: > 100 µM

Q: What about the TGI [31] of the same molecule?
A: > 100 µM

Q: And the TGI [32]?
A: > 100 µM

Q: What about the TGI [33] of the same molecule?
A: > 100 µM

Q: What about the TGI [34] of the same molecule?
A: > 100 µM

Q: And the TGI [36]?
A: > 100 µM

Q: What about the TGI [37] of the same molecule?
A: > 100 µM

Q: What about the TGI [38] of the same molecule?
A: > 100 µM

Q: What about the TGI [39] of the same molecule?
A: > 100 µM

Q: And the TGI [40]?
A: > 100 µM

Q: What about the TGI [55] of the same molecule?
A: > 100 µM

Q: What about the TGI [56] of the same molecule?
A: 76.2 µM

Q: And the TGI [43]?
A: > 100 µM

Q: What about the TGI [44] of the same molecule?
A: > 100 µM

Q: What about the TGI [45] of the same molecule?
A: > 100 µM

Q: And the TGI [46]?
A: > 100 µM

Q: And the TGI [47]?
A: > 100 µM

Q: What about the TGI [57] of the same molecule?
A: > 100 µM

Q: What about the TGI [48] of the same molecule?
A: > 100 µM

Q: Which results are given for `CCCOP1(=O)C=C(O)C(Cl)=C(C)C1` (stereo not given)?
A: TGI [1]: > 100 µM; TGI [2]: > 100 µM; TGI [3]: > 100 µM; TGI [4]: > 100 µM; TGI [5]: > 100 µM; TGI [6]: > 100 µM; TGI [7]: > 100 µM; TGI [50]: > 100 µM; TGI [51]: > 100 µM; TGI [8]: > 100 µM; TGI [9]: > 100 µM; TGI [10]: > 100 µM; TGI [11]: > 100 µM; TGI [12]: > 100 µM; TGI [13]: > 100 µM; TGI [14]: > 100 µM; TGI [15]: > 100 µM; TGI [16]: > 100 µM; TGI [17]: > 100 µM; TGI [18]: > 100 µM; TGI [19]: > 100 µM; TGI [21]: > 100 µM; TGI [52]: > 100 µM; TGI [22]: > 100 µM; TGI [23]: > 100 µM; TGI [53]: > 100 µM; TGI [24]: > 100 µM; TGI [25]: > 100 µM; TGI [54]: > 100 µM; TGI [27]: > 100 µM; TGI [28]: > 100 µM; TGI [29]: > 100 µM; TGI [30]: > 100 µM; TGI [31]: > 100 µM; TGI [32]: > 100 µM; TGI [33]: > 100 µM; TGI [34]: > 100 µM; TGI [36]: > 100 µM; TGI [37]: > 100 µM; TGI [38]: > 100 µM; TGI [39]: > 100 µM; TGI [55]: > 100 µM; TGI [56]: > 100 µM; TGI [42]: > 100 µM; TGI [43]: > 100 µM; TGI [44]: > 100 µM; TGI [45]: > 100 µM; TGI [46]: > 100 µM; TGI [47]: > 100 µM; TGI [57]: > 100 µM; TGI [48]: > 100 µM; TGI [49]: > 100 µM
